What was measured:
PC12 cells [1] = test: Determination of neurite outgrowth rate in PC12 cells (image count); assay type: cell-based; settings: NGF added section (100 ng/mL), 96 hours
Experimental: PSG-1 belongs to an immunoglobulin super family which includes some having the function of promoting neurogenesis. Then, the influence of 1,5-AG upon neuritogenesis was investigated. This was evaluated in a test system using PC12 cells which are generally used for the evaluation of neuritogenesis.
PC12 cells (Lot No. 48, Lot No. 51) (RIKEN cell bank, material 1)
DMEM medium prepared by adding 0.1% of FBS, 0.1% of HS, 1 ng/mL NGF and 1% of penicillin-streptomycin
PC12 cells were initiated in a T-75 flask by using a growth medium to be cultured in a CO2 incubator (5% CO2, 37° C., moistening). Medium exchange was carried out every 2 days, the cells were collected when 80% confluence was reached, and cells having a passage number of 2 were used in this test. Stated more specifically, after the cells were washed with D-PBS (−), the cells were separated by using 0.05% trypsin, and a growth medium was added to neutralize trypsin. Then, the supernatant was removed by centrifugation (180 g, 5 minutes), a growth medium was added to stir the cells, the number of the cells was counted by using a corpuscle calculating board, and a growth medium was used to achieve a target concentration (2.0×10^3 cells/100 μL).
(§1) A test was carried out at five concentrations (1.6, 8, 40, 200 and 1,000 μg/mL) of 1,5-AG. Stated more specifically, a 1,5-AG aqueous solution having a concentration of 100 mg/mL was diluted with water to prepare 100 times-concentrated solutions having concentrations of 0.16, 0.8, 4, 20 and 100 mg/mL. These 100 times-concentrated solutions were each added to a test medium in a ratio of 1/100 to achieve final concentrations of 1.6, 8, 40, 200 and 1,000 μg/mL and sterilized with a filter to be used in the test. As a negative control, water was added to a medium in a ratio of 1/100 and sterilized with a filter to be used in the test. As a positive control, a test medium containing a 100 ng/mL nerve growth factor (NGF) was used.
(§2) A growth medium was used to adjust the cells to a concentration of 2.0×10^3 cells/100 μL/well, and the cells were scattered in a collagen-coated 96-well plate to be cultured in a CO2 incubator (5% CO2, 37° C., moistening) for 24 hours. After culture, the medium was replaced by a sample-containing test medium (100 μL), and the cells were cultured in a CO2 incubator for 96 hours. After the end of culture, an image of the cells in each well was taken with a phase difference microscope and used for the measurement of nuetrite outgrowth rate, and nuclei and cytoplasms were fluorescent dyed by using a neurite outgrowth staining kit to measure the number of living cells and the amount of neurite outgrowth. These procedures were carried out five times each.
Based on the image taken above, the total number of cells, the number of cells showing the same or higher neurite outgrowth than the cell length and the number of cells showing neurites having a length 2 times or more than the cell length were measured from the image of the cells. The percentage (%) of cells showing neurite outgrowth was calculated from the measurement values.

PC12 cells [2] = test: Fluorescence determination of number of living cells and amount of neurite outgrowth (neurite outgrowth staining kit); assay type: cell-based; settings: NGF added section (100 ng/mL)
Experimental: as §1, §2
After the end of culture, the number of living cells and the amount of neurite outgrowth were determined by using a neurite outgrowth staining kit. Stated more specifically, after the medium was removed, 100 μL of a staining solution (prepared by diluting Cell Viability Indicator and Cell Membrane Stain attached to the kit with calcium magnesium-containing PBS 1,000 times) was added to each well to incubate the cells at 37° C. for 20 minutes. After incubation, the staining solution was removed, 100 μL of a background suppression solution (prepared by diluting the background suppression dye attached to the kit with calcium magnesium-containing PBS 100 times) was added to each well so as to measure fluorescence intensity with a micro plate reader (measurement of the number of living cells: excitation wavelength of 495 nm, fluorescence wavelength of 515 nm, measurement of the amount of neurite outgrowth: excitation wavelength of 555 nm, fluorescent wavelength of 565 nm).

In the case of “NGF: positive control: a test medium containing a 100 ng/mL nerve growth factor (NGF) [reference compound]”, the “cells showing a neurite outgrowth rate of 1 time or more” value (PC12 cells [1]) is reported as 68.8%, the “cells showing a neurite outgrowth rate of 2 times or more” value (PC12 cells [1]) is reported as 54.5% and the “amount of neurite outgrowth per cell as compared with the non-added section” value (PC12 cells [2]) is reported as 183.1%.

Source: patent US20170223976A1, “MODIFIED MILK POWDER CONTAINING 1,5-ANHYDRO-D-GLUCITOL” (NIHON STARCH CO., LTD., priority 2015, published 2017)
